{"source": "a melting point compilation (Tetko et al.; mined from patent text by program, amines drawn as free bases though some values may be those of a salt)"}
{"units": {"melting point": "°C"}}
{"smiles": "Cc1ccc2c(c1)C1(COc3cc4c(cc31)OCCO4)C(=O)N2Cc1ncccc1C(F)(F)F", "note": "(centres undefined)", "melting point": "137 to 139"}
{"smiles": "COc1ccc(CC(C(N)=O)S(C)=O)cc1C(=O)NCc1ccc(C(F)(F)F)cc1", "note": "(centres undefined)", "melting point": "170 to 171"}
{"smiles": "Cc1nc(NC(=O)Nc2ccccc2)n(C)c(=O)c1CCN1CCN(c2noc3ccccc23)CC1", "melting point": 216}
{"smiles": "O=C(O)c1cn(-c2nccs2)c2nc(Cl)cc(Cl)c2c1=O", "melting point": "264 to 266"}
{"smiles": "O=C(O)C1=Cc2cc(Cl)c(Oc3ccc(Cl)cc3Br)cc2OC1C(F)(F)F", "note": "(centres undefined)", "melting point": "224 to 226"}
{"smiles": "CCOC(=O)Cc1cccc2c(-c3ccc(N(C)C)cc3)nccc12", "melting point": "132 to 135"}
{"smiles": "c1ccc2oc(-c3ccc(-c4nc5ccccc5o4)cc3)nc2c1", "melting point": "318 to 328"}
{"smiles": "Nc1ccccc1Oc1ccc2ncccc2c1", "melting point": "115 to 117"}
{"smiles": "Cn1c2c(ccc1=O)C(NCCc1ccc3ccccc3c1)CCC2", "note": "(centres undefined)", "melting point": "113 to 115"}
{"smiles": "CSC(=C[N+](=O)[O-])NCCSCc1ccccn1", "melting point": "95.5 to 96.5"}
{"smiles": "CCOC(=O)CCCCCOC(=O)c1c(I)c(NC(C)=O)c(I)c(NC(C)=O)c1I", "melting point": "235 to 238"}
{"smiles": "COC(=O)CCC(=O)c1ccc(NS(C)(=O)=O)cc1", "melting point": "181 to 183"}
{"smiles": "Cc1oc(-c2ccccc2)nc1COc1ccc(CON=C(CCCCC(=O)NS(C)(=O)=O)c2ccccc2)cc1", "melting point": "130 to 132"}
{"smiles": "CCOC(=O)CCC(C#N)(c1cccc(F)c1)N1CCOCC1", "note": "(centres undefined)", "melting point": "88 to 90"}
{"smiles": "O=C(NO)[C@H](CNS(=O)(=O)c1ccc(OCc2ccccc2)cc1)N1CCCC1", "melting point": 186}
{"smiles": "N[C@H]1CCN(C(=O)c2cc(C(F)(F)F)cc(C(F)(F)F)c2)[C@H](Cc2ccc(Cl)cc2)C1", "melting point": "79 to 81"}
{"smiles": "CCCCCCCCCCCCC1(Cc2cc(N=Nc3ccc([N+](=O)[O-])cc3[N+](=O)[O-])ccc2O)COCCOCC(C)(C)COCCOC1", "melting point": "64 to 65"}
{"smiles": "COc1ccc(C=Cc2cccc(C#N)n2)cc1", "melting point": "121 to 122"}
{"smiles": "O=C(Nc1ccc(OC(F)(F)F)cc1)NC1CCN(C(=O)CN2CCN(Cc3ccccc3)CC2)CC1", "melting point": "178 to 183"}
{"smiles": "Cc1ccc(-c2ccccc2S(N)(=O)=O)cc1", "melting point": 122}
{"smiles": "CC(C)OC(=O)C1CCCN1S(=O)(=O)c1ccc(N2CCC(NCC(O)COc3cccc4[nH]c(=O)[nH]c34)CC2)cc1", "note": "(centres undefined)", "melting point": "74 to 83"}
{"smiles": "CC(C)(C#N)c1cc(Cn2cncn2)cc(C(C)(C)C#N)c1", "melting point": "81 to 82"}
{"smiles": "CC(C)(C)OC(=O)N1CCC2(Cc3ccc(C#N)cc3)C(=O)N(c3cc(Cl)nc(Cl)c3)C(=O)N12", "note": "(centres undefined)", "melting point": 179}
{"smiles": "O=C1c2ccccc2C(=O)N1Cc1cn2ccccc2n1", "melting point": "230 to 232"}
{"smiles": "COc1ccc(C(CN2CCN(Cc3ccccc3)C2=O)NC(C)=O)cc1OC", "note": "(centres undefined)", "melting point": 156}
{"smiles": "CC(=O)CC(=O)Nc1cccc(OC(=O)NC2CCCCC2)c1", "melting point": 159}
{"smiles": "COC(=O)c1c(C)c(N=O)c2ccccn12", "melting point": "131 to 132"}
{"smiles": "Cc1nn(-c2ccccn2)c2[nH]c3cccc(C(=O)O)c3c(=O)c12", "melting point": "303 to 306"}
{"smiles": "COc1cc(OC)c2c(=O)[nH]c(-c3ccc(OCCO)c(-c4ccc(S(C)(=O)=O)cc4)n3)nc2c1", "melting point": "> 300"}
{"smiles": "O=c1oc(-c2ccccc2)cc(O)c1C(SC1CCCC1)C1CCCC1", "note": "(centres undefined)", "melting point": "139 to 142"}
{"smiles": "CC(=O)Nc1cc2c(cc1[N+](=O)[O-])OCCCO2", "melting point": "139 to 140"}
{"smiles": "O=C(Nc1ccc(-n2nc(C(F)(F)F)cc2C(F)(F)F)cc1)c1c(F)cc(Cl)cc1Cl", "melting point": "185 to 188"}
{"smiles": "O=C(O)c1cn(-c2cccnc2)cn1", "melting point": "265 to 266"}
{"smiles": "CCCCn1c(N)c(N=O)c(=O)n(CC2CCCCC2)c1=O", "melting point": "229 to 230"}
{"smiles": "C#CCc1c(C)nc2c(OCc3ccccc3OC)cccn12", "melting point": "134 to 136"}
{"smiles": "CCOC(=O)NC(=NCCCc1c[nH]cn1)NCCSCc1ccccc1", "melting point": "91 to 92"}
{"smiles": "CCCc1c(CC)sc2[nH]c(=O)c(=O)[nH]c12", "melting point": "295 to 298"}
{"smiles": "N=C(NO)c1cnc(Cl)c(Cl)c1", "melting point": "182 to 184"}
{"smiles": "S=C(Cc1ccc(Cl)cc1)N1CCCCC1", "melting point": "82.5 to 83.5"}
{"smiles": "Cc1ccn2c(=O)c(CCN3CCC(c4c[nH]c5ccccc45)CC3)c(C)nc2c1", "melting point": 236}
{"smiles": "CCNC(=O)c1c(Cl)cccc1N(C)C(C)(C)C", "melting point": "106 to 108"}
{"smiles": "CC(=O)n1nc(-c2c(C)cc(C)c(N)c2C)n2nc(C(C)(C)C)cc12", "melting point": "206 to 207"}
{"smiles": "O=C(O)c1ccc(Cl)cc1C(F)(F)F", "melting point": "106 to 108"}
{"smiles": "COC(=O)c1ccc(C=CC(=O)N2CCc3c([nH]c4ccccc34)C2c2ccc3c(c2)CCO3)nc1", "note": "(centres undefined)", "melting point": "> 260"}
{"smiles": "CN1CC(=O)N2CCC[C@H]2C1=O", "melting point": "133 to 135"}
{"smiles": "CCCC(=O)c1cnc2c(C(=O)OC)cccc2c1Nc1ccccc1C", "melting point": "113 to 115"}
{"smiles": "O=C(NNc1ccc(C=CC(c2cc(Cl)c(Cl)c(Cl)c2)C(F)(F)F)cc1)C1CC1", "note": "(centres undefined)", "melting point": "138 to 140"}
{"smiles": "COCc1cn2c(C)c(C)nc2c2c1C(=O)[C@H](O)[C@@H](c1ccccc1)N2", "melting point": "206 to 208"}
{"smiles": "CCN1c2ncc(CSc3ncnc4[nH]ncc34)cc2C(=O)N(C)c2ccc(Cl)nc21", "melting point": "128 to 130"}
{"smiles": "CCOC(=O)COc1cccc2c1CCc1sc(S(=O)(=O)C(c3ccccc3)c3ccccc3)nc1-2", "melting point": "184 to 187"}
{"smiles": "COc1ccc2c(c1)CCC([C@@H]1CC[C@H](O)[C@@]1(C)CC(=O)O)C2", "note": "(some centres undefined)", "melting point": 142}
{"smiles": "COCn1ccnc1C(O)(c1ccc(Cl)cc1Cl)c1ccc(Cl)cc1Cl", "melting point": 146}
{"smiles": "NC(N)=NC(=O)Cn1cccc1", "melting point": 214}
{"smiles": "CC(=O)O[C@@H]1OCC[C@@H]1NC(=O)[C@H](Cc1ccccc1)NC(=O)OCc1ccccc1", "melting point": "175 to 176"}
{"smiles": "Cc1ccc(NC(=O)c2ccc(C(=O)Nc3ccccc3N)nc2)cc1Nc1nccc(-c2cccnc2)n1", "melting point": "150 to 152"}
{"smiles": "CCc1nc2c(N)nc3ccccc3c2n1CCOCCNC(=O)N1CCOCC1", "melting point": "182 to 184"}
{"smiles": "CN1CCN(c2cc(Cl)cc3c2c(=O)n(Cc2ccccc2Cl)c(=O)n3Cc2ccccc2)CC1", "melting point": "87 to 92"}
{"smiles": "C[C@H]1CCCC(C)(C)[C@@H]1[C@H](O)c1cccc(C#N)c1", "melting point": "105 to 107"}
{"smiles": "COc1cc(Nc2c(C#N)cnc3cc(-c4csc(C5OCCO5)c4)sc23)c(Cl)cc1Cl", "melting point": "219 to 221"}
{"smiles": "CCCCCCCC(=O)OCCc1c(-c2ccccc2)nc(NC(C)=O)n2ncnc12", "melting point": "69 to 70"}
{"smiles": "NP(N)(=S)NC1CCCCC1", "melting point": "148 to 150"}
{"smiles": "Cc1ccc(O)c2[nH]c(Cc3ccccc3)nc12", "melting point": "204 to 205"}
{"smiles": "Nc1ccc(N2CCCC2)nn1", "melting point": "209 to 211"}
{"smiles": "CCOCc1nc2c(N)nc3cccnc3c2n1CCCCCC(=O)N1CCOCC1", "melting point": "168 to 170"}
{"smiles": "O=C1NC(=O)C(Cc2ccc(OCCON=Cc3ccc4ccccc4c3)cc2)S1", "note": "(centres undefined)", "melting point": "108 to 111"}
{"smiles": "Cc1c(CCCCCCCCC(=O)O)cccc1C(=O)c1ccc(Cl)cc1", "melting point": 64}
{"smiles": "Cc1cc(-c2ccc(C(F)(F)F)cc2)nc(-c2cccc(-c3cccc(S(=O)(=O)NC(C)(C)C)c3)n2)n1", "melting point": "> 250"}
{"smiles": "COC(=O)c1cc(CI)on1", "melting point": "91 to 95"}
{"smiles": "CCOC(=O)c1ccc(-c2ccc(-c3cccc(OCOC)c3)c(-c3ccc4c(c3)C(C)(C)CCC4(C)C)c2)cc1", "melting point": "103 to 104"}
{"smiles": "C#Cc1ccc2ccc(OC(CC)C(=O)NC(C)(C)CO)cc2c1", "note": "(centres undefined)", "melting point": "81 to 82"}
{"smiles": "Cc1csc2[nH]cc(C(=O)c3ccc(Cl)cc3)c12", "melting point": 223}
{"smiles": "CSc1ccc(C2=CC(=O)C3(CCOCC3)O2)cc1", "melting point": "135 to 138"}
{"smiles": "CCOC(=O)C1=C(C)NC(C)=C(C(=O)OC)C1c1ccc(SC)cc1", "note": "(centres undefined)", "melting point": 163}
{"smiles": "Cn1c(C(F)(F)F)cc(=O)n(-c2ccc3snc(C4OCC(O)(CBr)CO4)c3c2)c1=O", "note": "(centres undefined)", "melting point": "105 to 110"}
{"smiles": "COc1ccc2c(c1)c(-c1[nH]c3ncccc3c1F)cn2C", "melting point": "248 to 250"}
{"smiles": "O=C(O)Cc1ccc(S(=O)(=O)c2ccc(Cl)cc2)cc1", "melting point": "153 to 157"}
{"smiles": "CCc1ccccc1-c1nc(-c2ccccc2)n[nH]1", "melting point": "124 to 126"}
{"smiles": "Cc1cc(C)c(-c2cn(C)c3nc(N(C)C)n(C)c(=O)c23)c(C)c1", "melting point": "127 to 128"}
{"smiles": "CCC1CC(=O)N(Cc2cccc(C(=O)NC3CCCC3)c2)N=C1c1ccc(OC)c(OC2CCCC2)c1", "note": "(centres undefined)", "melting point": 153}
{"smiles": "COC(=O)[C@H](Cc1ccc([N+](=O)[O-])cc1)NC(=O)c1ccccc1F", "melting point": "137 to 139"}
{"smiles": "CCCCCCCCCCCCc1cc(N)on1", "melting point": "48.5 to 49.5"}
{"smiles": "CC1(C)CC(O)=CC2(C1)NCC(c1cccc(O)c1)O2", "note": "(centres undefined)", "melting point": 217}
{"smiles": "CC[C@@]1(O)C(=O)OCc2c1cc1n(c2=O)Cc2c-1nc1ccc(C)c3c1c2C(NC(C)=O)CN3", "note": "(some centres undefined)", "melting point": "225 to 235"}
{"smiles": "O=[N+]([O-])c1cccnc1NCC(O)c1ccccc1", "note": "(centres undefined)", "melting point": "101 to 103"}
{"smiles": "Cc1cc2c(cc1C)N(C)C(=O)c1cccnc1N2", "melting point": "206 to 209"}
{"smiles": "COc1ccc2cc(CC(=O)OCC(C)=O)ccc2c1", "melting point": "122 to 124"}
{"smiles": "CC(C)C(=O)NC(=O)c1cccc(-c2noc(-c3ccccc3F)n2)c1", "melting point": "183 to 184"}
{"smiles": "CCOC(=O)c1ccccc1OCCCCCCCCCCC(=O)CCCCOc1ccc(Cl)cc1", "melting point": "95 to 96"}
{"smiles": "Clc1cc(-c2ccncc2)ccn1", "melting point": "193 to 196"}
{"smiles": "O=C1CC2CCC(=O)N2c2cc(O)cc(O)c21", "note": "(centres undefined)", "melting point": "254 to 256"}
{"smiles": "CC(C)NC(=O)c1c(NC(=O)c2cc(C(F)(F)F)nn2-c2ncccc2Cl)ccc2cc[nH]c12", "melting point": "240 to 242"}
{"smiles": "CC(=O)c1ccc(Cl)c2c1OC(F)(F)O2", "melting point": 40}
{"smiles": "C=C(C)n1c(=O)n(CCN2CCC(Cc3c[nH]c4ccc(F)cc34)CC2)c2ccccc21", "melting point": 132}
{"smiles": "CCN1CNS(=O)(=O)c2cc(Oc3cccc(C(C)O)c3)ccc21", "note": "(centres undefined)", "melting point": 60}
{"smiles": "NCc1ccc(N2CC(CN3CCC(CC(=O)O)CC3)OC2=O)cc1", "note": "(centres undefined)", "melting point": 135}
{"smiles": "Cc1c(COc2cccc3cc(NS(=O)(=O)C(F)(F)F)ccc23)cccc1-c1ccccc1", "melting point": "124 to 125"}
{"smiles": "O=c1oc(=O)n(CCc2ccccc2)c2ncccc12", "melting point": "147 to 149"}
{"smiles": "CCCCCCCN=C1SC(=CC(=O)O)C(=O)N1CCCCCCC", "melting point": "80 to 81"}
{"smiles": "O=C(NC1=CCN(CCc2ccccc2)CC1)c1ccccc1", "melting point": "115 to 117"}
